Laboratory results reported in US10221144B2, “Antibacterial compounds having broad spectrum of activity” (priority 2014, dated 2019).
Read-outs that look alike come from different tables or passages of the source.

Key:
Type in all cases: biochemical
E. coli Topoisomerase IV = molecular target: T1, E. coli Topoisomerase IV (Escherichia coli, UniProt P0AFI2+P20083); assay: Topoisomerase IV decatenation assay (E. coli); conditions: for inhibition at 50 µM: E. coli, conc. 50 μM, n/a = not active, read-out: % inhibition Topo IV
T1 construct: purchased Inspiralis, UK
In short: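 Topo IV decatenation of kDNA (200 ng) with 0.5 U enzyme in HEPES-KOH pH 7.6 buffer containing 1 mM ATP and Mg acetate, 30 min at 37 °C. Single-concentration screen (200, 100 or 50 μM) in duplicate. Decatenated minicircles resolved on agarose, ethidium-stained band intensity expressed as % inhibition versus vehicle; IC50 from exponential-decay curve fit.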

S. aureus DNA gyrase = molecular target: T2, S. aureus DNA gyrase (Staphylococcus aureus, UniProt P0A0K8+P20831); assay: DNA gyrase supercoiling assay (S. aureus); conditions: for inhibition at 50 µM: S. aureus, conc. 50 μM, n/a = not active
T2 construct: purchased Inspiralis, UK
In short: (§1)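 Relaxed pBR322 (0.5 μg) supercoiled by E. coli (2 U) or S. aureus (1 U) gyrase, 30 min at 37° C; compounds at single 200, 100 or 50 μM, duplicate. Supercoiled band quantified on ethidium-stained agarose gel, expressed as % inhibition vs DMSO control; IC50 by two-parameter exponential decay fit.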

[1] = molecular target: T3, S. aureus Topoisomerase IV (Staphylococcus aureus, UniProt P0C1S7+P0C1U9); assay: Topoisomerase IV decatenation assay (S. aureus); conditions: for inhibition at 50 µM: read-out: % inhibition Topo IV
T3 construct: purchased Inspiralis, UK
Experimental: The above compounds were tested for the inhibition of the enzyme DNA gyrase in a gyrase supercoiling assay and for the inhibition of the enzyme topoisomerase IV in a decatenation assay, in both Gram positive and Gram negative bacteria, according to the following methods.
Both the assays were carried out according to a set-up method modified from the article to Blanche F, et al. “Differential Behaviors of Staphylococcus aureus and Escherichia coli Type II DNA Topoisomerases”, Antimicrob. Agents Chemother., 1996, Vol. 40, No. 12 p. 2714-2720.
The compounds were screened at single concentration (200, 100 or 50 μM), in duplicate.
S. aureus and E. coli Topoisomerase IV decatenation kits (Inspiralis, UK) were used. A master mix with a total volume sufficient for the number of reactions to perform was prepared with the following reagents: 5× assay buffer (50 mM HEPES-KOH (pH 7.6), 100 mM potassium glutamate, 10 mM magnesium acetate, 10 mM DTT, 1 mM ATP, 50 μg/ml albumin), kDNA substrate (200 ng/reaction), RNase-DNase free water. Aliquots of this mix were dispensed in each tube, then 10× compound stock solutions or vehicle control (DMSO), were added in each reaction tube.
Reaction was started with Topoisomerase IV enzyme (0.5 U/reaction) addition.
A sample added with an equal volume of dilution buffer was used as negative control (without enzyme).
The reaction tubes were gentle vortexed and incubated 30 minutes at 37° C. Each reaction was stopped by adding 30 μl of Stop Buffer and 30 μl of chloroform/isoamyl alcohol (24/1), briefly vortexed for 5-10 seconds and centrifuged at 20000×g for 2 minutes. Samples taken from the upper phase were loaded into 1% agarose gel and subjected to electrophoresis for 1 hour at 80V constant voltage in TAE (40 mM Tris-acetate, 2 mM EDTA).
Data acquisition and analysis. Due to the high molecular mass, kDNA could not enter an agarose gel under normal electrophoresis conditions, but remained in the wells. In the presence of Topo IV topoisomerase mini-circles (2.5 Kb) were released from kDNA by decatenation and were quickly and easily resolved in the gel at relatively high voltages.
Bands were visualized by ethidium bromide staining (dil 1:20000) for 30 minutes followed by destaining in distilled water for 10 minutes.
For single concentration screening assay, in order to evaluate the compounds activity on the enzymes, the bands of decatenated DNAs in the gel were photographed by a digital imaging system ImageQuant LAS 4000 (GE Healthcare) according to manufacturer's instructions.
The fluorescent intensity of each band was analyzed by ImageQuant TL software and it was expressed as volume (volume of the uncalibrated quantity of material in the image feature after subtraction of the background intensity by using rolling ball method).
Each band intensity was compared, as percentage, to vehicle sample band intensity, which served as positive control, on the same gel.
Inhibitory activity was expressed as percent of inhibition versus the positive control.
The supercoiled or decatenated DNA bands obtained as described in Example 1 were analysed as follows.
Bands were analyzed by gel documentation equipment (Syngene, Cambridge, UK) and quantitated using Syngene Gene Tools software. Raw gel data (fluorescent band volumes) collected from Syngene, GeneTools gel analysis software were converted to a percentage of the 100% control (the fully supercoiled or decatenated DNA band). […] The IC50 data were calculated by using the global curve fit non-linear regression tool by selecting the Single, 2 Parameter fit function from the Exponential Decay equation category.

E. coli DNA gyrase = molecular target: T4, E. coli DNA gyrase (Escherichia coli, UniProt P0AES4+P0AES6); assay: DNA gyrase supercoiling assay (E. coli); conditions: for inhibition at 50 µM: E. coli, conc. 50 μM, n/a = not active
T4 construct: purchased Inspiralis, UK
In short: as §1

[2] = S. aureus, conc. 50 μM, n/a = not active

T2 sequence (P0A0K8 whole entry): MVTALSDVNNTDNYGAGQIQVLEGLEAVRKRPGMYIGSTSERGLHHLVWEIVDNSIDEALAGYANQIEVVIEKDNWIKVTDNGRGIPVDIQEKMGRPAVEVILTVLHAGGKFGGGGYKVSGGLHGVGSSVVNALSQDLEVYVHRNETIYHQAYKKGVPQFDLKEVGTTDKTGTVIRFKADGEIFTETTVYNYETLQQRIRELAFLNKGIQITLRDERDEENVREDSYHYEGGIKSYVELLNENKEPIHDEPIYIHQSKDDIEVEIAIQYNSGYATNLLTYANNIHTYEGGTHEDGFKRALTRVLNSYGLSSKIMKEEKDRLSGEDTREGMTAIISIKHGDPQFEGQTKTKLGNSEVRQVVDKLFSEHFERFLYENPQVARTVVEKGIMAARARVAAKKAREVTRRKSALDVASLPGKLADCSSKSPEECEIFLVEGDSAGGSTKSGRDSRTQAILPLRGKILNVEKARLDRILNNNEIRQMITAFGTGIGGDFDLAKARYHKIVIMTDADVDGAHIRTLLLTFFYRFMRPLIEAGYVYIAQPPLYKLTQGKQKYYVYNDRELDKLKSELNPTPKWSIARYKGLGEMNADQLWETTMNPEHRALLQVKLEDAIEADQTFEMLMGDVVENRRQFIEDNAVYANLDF
T2 sequence (P20831 whole entry): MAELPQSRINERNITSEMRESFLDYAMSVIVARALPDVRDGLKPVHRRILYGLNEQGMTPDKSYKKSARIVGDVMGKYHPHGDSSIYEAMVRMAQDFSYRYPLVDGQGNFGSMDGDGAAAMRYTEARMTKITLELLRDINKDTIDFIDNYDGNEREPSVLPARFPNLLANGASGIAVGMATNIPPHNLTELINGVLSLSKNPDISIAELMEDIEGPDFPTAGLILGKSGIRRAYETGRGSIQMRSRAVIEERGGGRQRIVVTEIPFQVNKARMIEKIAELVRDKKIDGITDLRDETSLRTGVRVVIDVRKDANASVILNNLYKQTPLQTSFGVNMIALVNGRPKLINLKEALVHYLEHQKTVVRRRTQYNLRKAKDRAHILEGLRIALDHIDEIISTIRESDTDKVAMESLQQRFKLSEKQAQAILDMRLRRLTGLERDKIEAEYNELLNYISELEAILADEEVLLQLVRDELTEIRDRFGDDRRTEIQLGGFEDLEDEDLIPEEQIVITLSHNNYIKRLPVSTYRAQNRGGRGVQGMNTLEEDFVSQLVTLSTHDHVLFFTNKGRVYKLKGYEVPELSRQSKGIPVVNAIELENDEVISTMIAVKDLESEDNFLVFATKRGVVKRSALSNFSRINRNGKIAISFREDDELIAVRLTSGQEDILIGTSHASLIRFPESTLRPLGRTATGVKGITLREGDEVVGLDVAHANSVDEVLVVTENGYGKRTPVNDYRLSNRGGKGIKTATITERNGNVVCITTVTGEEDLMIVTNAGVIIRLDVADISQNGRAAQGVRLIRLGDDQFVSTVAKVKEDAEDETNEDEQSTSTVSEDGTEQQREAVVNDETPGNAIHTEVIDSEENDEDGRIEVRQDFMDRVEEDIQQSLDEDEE
T4 sequence (P0AES4 whole entry, one chain of several): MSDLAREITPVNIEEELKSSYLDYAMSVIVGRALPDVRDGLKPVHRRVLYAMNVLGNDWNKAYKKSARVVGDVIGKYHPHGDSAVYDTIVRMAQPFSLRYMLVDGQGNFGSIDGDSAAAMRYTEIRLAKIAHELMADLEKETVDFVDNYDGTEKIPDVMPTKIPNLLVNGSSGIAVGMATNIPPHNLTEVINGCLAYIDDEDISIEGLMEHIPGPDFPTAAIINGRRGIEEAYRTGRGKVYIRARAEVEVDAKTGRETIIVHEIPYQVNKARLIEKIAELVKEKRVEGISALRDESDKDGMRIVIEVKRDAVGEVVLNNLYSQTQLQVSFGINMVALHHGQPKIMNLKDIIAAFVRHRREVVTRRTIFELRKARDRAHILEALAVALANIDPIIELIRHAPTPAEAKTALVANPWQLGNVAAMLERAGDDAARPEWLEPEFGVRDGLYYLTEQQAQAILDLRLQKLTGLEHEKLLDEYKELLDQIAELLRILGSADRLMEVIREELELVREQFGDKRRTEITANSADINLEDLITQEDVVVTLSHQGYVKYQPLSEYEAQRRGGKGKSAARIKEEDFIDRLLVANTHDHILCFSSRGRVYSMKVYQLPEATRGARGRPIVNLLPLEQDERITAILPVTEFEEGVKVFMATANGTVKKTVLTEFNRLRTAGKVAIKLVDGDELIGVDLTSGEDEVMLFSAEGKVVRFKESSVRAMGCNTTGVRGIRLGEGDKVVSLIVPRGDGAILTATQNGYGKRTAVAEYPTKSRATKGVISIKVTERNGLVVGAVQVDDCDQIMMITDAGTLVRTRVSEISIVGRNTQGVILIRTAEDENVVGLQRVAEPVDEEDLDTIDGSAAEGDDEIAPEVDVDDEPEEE
T1 sequence (P20083 whole entry): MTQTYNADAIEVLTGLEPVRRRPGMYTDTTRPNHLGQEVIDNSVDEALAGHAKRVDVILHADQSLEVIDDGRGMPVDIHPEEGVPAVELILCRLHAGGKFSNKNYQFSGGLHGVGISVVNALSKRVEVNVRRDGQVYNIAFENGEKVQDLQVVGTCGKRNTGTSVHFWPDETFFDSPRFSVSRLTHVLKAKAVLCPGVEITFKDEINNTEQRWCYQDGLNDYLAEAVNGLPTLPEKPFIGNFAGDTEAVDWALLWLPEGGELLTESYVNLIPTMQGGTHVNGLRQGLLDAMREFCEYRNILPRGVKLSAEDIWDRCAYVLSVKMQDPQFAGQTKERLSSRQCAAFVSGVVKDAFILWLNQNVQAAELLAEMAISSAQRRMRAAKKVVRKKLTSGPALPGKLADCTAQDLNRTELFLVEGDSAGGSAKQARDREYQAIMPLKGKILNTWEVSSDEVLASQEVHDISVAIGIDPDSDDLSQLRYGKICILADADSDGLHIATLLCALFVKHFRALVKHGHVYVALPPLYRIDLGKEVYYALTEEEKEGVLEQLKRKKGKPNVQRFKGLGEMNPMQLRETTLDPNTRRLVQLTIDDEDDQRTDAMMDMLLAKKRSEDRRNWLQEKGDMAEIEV
T1 sequence (P0AFI2 whole entry): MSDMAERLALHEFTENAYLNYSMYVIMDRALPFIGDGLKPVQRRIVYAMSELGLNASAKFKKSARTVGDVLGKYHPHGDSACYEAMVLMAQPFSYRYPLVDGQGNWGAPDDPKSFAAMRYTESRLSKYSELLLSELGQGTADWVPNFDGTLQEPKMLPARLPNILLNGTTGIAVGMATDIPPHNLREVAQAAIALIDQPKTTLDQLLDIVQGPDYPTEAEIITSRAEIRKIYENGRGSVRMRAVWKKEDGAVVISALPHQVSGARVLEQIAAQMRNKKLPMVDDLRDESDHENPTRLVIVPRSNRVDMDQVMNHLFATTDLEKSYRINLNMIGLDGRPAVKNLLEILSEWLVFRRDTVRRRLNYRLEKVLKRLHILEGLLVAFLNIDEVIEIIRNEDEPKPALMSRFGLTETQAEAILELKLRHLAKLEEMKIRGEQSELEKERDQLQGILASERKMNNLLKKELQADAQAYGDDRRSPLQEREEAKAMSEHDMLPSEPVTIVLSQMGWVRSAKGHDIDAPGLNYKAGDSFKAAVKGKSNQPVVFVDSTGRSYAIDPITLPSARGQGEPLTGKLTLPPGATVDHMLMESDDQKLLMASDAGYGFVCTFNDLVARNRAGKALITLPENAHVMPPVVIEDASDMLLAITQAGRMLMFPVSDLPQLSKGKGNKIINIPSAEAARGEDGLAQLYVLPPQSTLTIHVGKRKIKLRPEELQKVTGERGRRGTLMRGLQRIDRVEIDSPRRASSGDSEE

| SMILES | IC50 (E. coli Topoisomerase IV) | inhibition at 50 µM (E. coli Topoisomerase IV) | IC50 (S. aureus DNA gyrase) | inhibition at 50 µM (S. aureus DNA gyrase) | IC50 [1] | inhibition at 50 µM [1, 2] | IC50 (E. coli DNA gyrase) | inhibition at 50 µM (E. coli DNA gyrase) | inhibition at 50 µM [1] |
| --- | --- | --- | --- | --- | --- | --- | --- | --- | --- |
| O=c1oc2ccc(F)cc2c2cc(CNC3CCN(c4nccc5ncccc45)CC3)[nH]c12 [Compound 187, 8-fluoro-2-({[1-(1,6-naphthyridin-5-yl)piperidin-4-yl]amino}methyl)[1]benzopyrano[3,4-b]pyrrol-4(3H)-one] | 1570 nM | 82% | 160 nM | 95% | 1370 nM | 95% | 190 nM | 79% | – |
| COc1ccc2nccc(N3CCC(NCc4cc5c([nH]4)c(=O)oc4ccc(F)cc45)CC3)c2n1 [Compound 188, 8-fluoro-2-({[1-(6-methoxy-1,5-naphthyridin-4-yl)piperidin-4-yl]amino}methyl)[1]benzopyrano[3,4-b]pyrrol-4(3H)-one] | 300 nM | 92% | 15 nM | 97% | 200 nM | 98% | 90 nM | 100% | – |
| COc1ccc2ncc(F)c(N3CCC(NCc4cc5c([nH]4)c(=O)oc4ccc(F)cc45)CC3)c2n1 [Compound 192, 8-fluoro-2-({[1-(3-fluoro-6-methoxy-1,5-naphthyridin-4-yl)piperidin-4-yl]amino}methyl)[1]benzopyrano[3,4-b]pyrrol-4(3H)-one] | 130 nM | 37% | 17 nM | 88% | 100 nM | 76% | 80 nM | 70% | – |
| COc1ccc2ncc(C#N)c(N3CCC(NCc4cc5c([nH]4)c(=O)oc4ccc(F)cc45)CC3)c2n1 [Compound 195, 4-(4-{[(8-fluoro-4-oxo-3,4-dihydro[1]benzopyrano[3,4-b]pyrrol-2-yl)methyl]amino}piperidin-1-yl)-6-methoxy-1,5-naphthyridine-3-carbonitrile] | 300 nM | 100% | 100 nM | 100% | 100 nM | 100% | 140 nM | 99% | – |
| O=c1oc2ccc(F)cc2c2cc(CNC3CCN(c4nccc5nccnc45)CC3)[nH]c12 [Compound 196, 8-fluoro-2-({[1-(pyrido[3,4-b]pyrazin-5-yl)piperidin-4-yl]amino}methyl)[1]benzopyrano[3,4-b]pyrrol-4(3H)-one] | 2540 nM | 100% | 160 nM | 83% | 390 nM | – | 790 nM | 85% | 89% |
| COc1cnc2ccnc(N3CCC(NCc4cc5c([nH]4)c(=O)oc4ccc(F)cc45)CC3)c2n1 [Compound 199, 8-fluoro-2-({[1-(3-methoxypyrido[3,4-b]pyrazin-5-yl)piperidin-4-yl]amino}methyl)[1]benzopyrano[3,4-b]pyrrol-4(3H)-one] | – | 100% | – | 92% | – | – | – | 90% | 100% |
| COc1ccc2cc(F)nc(N3CCN(CC(O)CNc4cc(=O)oc5ccc(F)cc45)CC3)c2c1 (stereo not drawn) [Compound 203, 6-fluoro-4-({3-[4-(3-fluoro-7-methoxyisoquinolin-1-yl)piperazin-1-yl]-2-hydroxypropyl}amino)-2H-1-benzopyran-2-one] | – | 100% | – | 100% | – | – | – | 100% | 100% |
